In patent US5288709A, “Erythromycin derivatives” (priority 1991, dated 1994):
Converted amounts (≈) assume the structure as drawn. Where two headings read alike, the source gives them in different places.

Columns and labels:
Experiment in all cases: In-vitro antimicrobial activity primary screen (agar dilution MIC)
Assay type in all cases: cell-based
[1] = tested on: Staphylococcus aureus CMX 503A; settings: Staphylococcus aureus, CMX503A, 24 h, BHI agar, 20-24 h, read-out: MIC
Procedure: (§1) The antimicrobial spectra of several of the compounds of the present invention were tested as described below.
(§2) Twelve petri dishes containing successive aqueous dilutions of the test compounds, mixed with 10 mL of sterilized Brain Heart Infusion (BHI) agar (Difco 0418-01-5), were prepared. Each plate was inoculated with 1:100 (or 1:10 for slow growing strains (primarily Micrococcus and Streptococcus) dilutions of up to 32 different microorganisms, using a Steers replicator block. The inoculated plates were incubated at 35 37° C. for 20-24 hours. In addition, a control plate, using BHI agar containing no test compound, was prepared and incubated at the beginning and the end of each test.
(§3) An additional plate containing a compound having known susceptibility patterns for the organisms being tested and belonging to the same antibiotic class as the test compounds was also prepared and incubated as a further control, as well as to provide test-to test comparability. Erythromycin A was used for this purpose.
(§4) After incubation, each plate was read. The MIC (minimum inhibitory concentration) is defined as the lowest concentration of test compound yielding no growth, a slight haze, or sparsely isolated colonies on the inoculum spot as compared to the growth control containing no test compound.

[2] = tested on: Staphylococcus aureus CMX 553; settings: Staphylococcus aureus, CMX553, 24 h, BHI agar, 20-24 h, read-out: MIC
Procedure: as §1, §2, §3, §4

[3] = tested on: Staphylococcus aureus CMX 686B; settings: CMX686B, BHI agar, 20-24 h, read-out: MIC
Procedure: as §1, §2, §3, §4

[4] = tested on: Staphylococcus aureus ATCC 6538P; settings: Staphylococcus aureus, ATCC6538P, 24 h, BHI agar, 20-24 h
Procedure: as §1, §2
(§5) An additional plate containing a compound having known susceptibility patterns for the organisms being tested and belonging to the same antibiotic class as the test compounds was also prepared and incubated as a further control, as well as to provide test-to test comparability.
as §4

Acinetobacter SP CMX 669 = settings: Acinetobacter, SPCMX669, 24 h
Procedure: as §1, §2, §5, §4

[5] = tested on: Pseudomonas aeruginosa K799/61
Procedure: as §1, §2, §5, §4

Pseudomonas cepacia 2961 = settings: BHI agar, 20-24 h
Procedure: as §1, §2, §5, §4

[6] = tested on: Pseudomonas aeruginosa A5007
Procedure: as §1, §2, §5, §4

[7] = tested on: Providencia stuartii CMX 640
Procedure: as §1, §2, §5, §4

Escherichia coli JUHL = settings: Escherichia coli JUHL, BHI agar, 20-24 h
Procedure: as §1, §2, §5, §4

[8] = tested on: Staphylococcus aureus 45 RAR2; settings: Staphylococcus aureus, 45RAR2, 24 h, BHI agar, 20-24 h
Procedure: as §1, §2, §5, §4

[9] = tested on: Micrococcus luteus ATCC 4698; settings: Micrococcus luteus, ATCC4698, 24 h, BHI agar, 20-24 h
Procedure: as §1, §2, §5, §4

[10] = tested on: Pseudomonas aeruginosa BMH10; settings: BHI agar, 20-24 h
Procedure: as §1, §2, §5, §4

[11] = tested on: Streptococcus bovis A5169; settings: Streptococcus equinus, BHI agar, 20-24 h
Procedure: as §1, §2, §5, §4

Escherichia coli SS = settings: BHI agar, 20-24 h
Procedure: as §1, §2, §5, §4

[12] = tested on: Pseudomonas aeruginosa K799/WT
Procedure: as §1, §2, §5, §4

[13] = tested on: Klebsiella pneumoniae ATCC 8045
Procedure: as §1, §2, §5, §4

[14] = tested on: Streptococcus pyrogenes EES61; settings: BHI agar, 20-24 h
Procedure: as §1, §2, §5, §4

Escherichia coli H560 = settings: Escherichia coli, H560, 24 h
Procedure: as §1, §2, §5, §4

[15] = tested on: Micrococcus luteus ATCC 9341; settings: 20-24 h
Procedure: as §1, §2, §5, §4

[16] = tested on: Enterococcus faecium ATCC 8043; settings: Enterococcus faecium, ATCC8043, 24 h
Procedure: as §1, §2, §5, §4

[17] = tested on: Staphylococcus aureus A5177; settings: Staphylococcus aureus A5177, BHI agar, 20-24 h
Procedure: as §1, §2, §5, §4

[18] = tested on: Streptococcus pyrogenes 2548 INDUC; settings: BHI agar, 20-24 h
Procedure: as §1, §2, §5, §4

[19] = tested on: Enterobacter aerogenes ATCC 13048; settings: Klebsiella aerogenes
Procedure: as §1, §2, §5, §4

Staphylococcus aureus 45 = settings: BHI agar, 20-24 h, read-out: MIC
Procedure: as §1, §2, §5, §4

[20] = tested on: Streptococcus agalactiae CMX 508; settings: Streptococcus agalactiae, CMX508, 24 h, BHI agar, 20-24 h
Procedure: as §1, §2, §5, §4

[21] = tested on: Staphylococcus epidermidis 3519; settings: BHI agar, 20-24 h
Procedure: as §1, §2, §5, §4

Escherichia coli DC-2 = settings: Escherichia coli DC-2, BHI agar, 20-24 h
Procedure: as §1, §2, §5, §4

[22] = Burkholderia cepacia, read-out: MIC
[23] = Pseudomonas aeruginosa, A5007, 24 h
[24] = CMX640, Providencia stuartii CMX 640, BHI agar, 20-24 h, read-out: MIC
[25] = Pseudomonas aeruginosa, BMH10, 24 h
[26] = Pseudomonas aeruginosa, K799/WT, 24 h
[27] = ATCC8045, Klebsiella pneumoniae ATCC 8045, BHI agar, 20-24 h, read-out: MIC
[28] = Staphylococcus aureus, A5177, 24 h
[29] = ATCC13048, Enterobacter aerogenes ATCC 13048, BHI agar, 20-24 h, read-out: MIC
[30] = ATCC9341, BHI agar, read-out: MIC
[31] = Staphylococcus epidermidis, 3519, 24 h

| SMILES | MIC [1] [µg/mL] | MIC [2] [µg/mL] | MIC [3] [µg/mL] | MIC [4] [µg/mL] | MIC (Pseudomonas cepacia 2961; [22]) [µg/mL] | MIC [6, 23] [µg/mL] | MIC [7, 24] [µg/mL] | MIC (Escherichia coli JUHL; read-out: MIC) [µg/mL] | MIC [8] [µg/mL] | MIC [9] [µg/mL] | MIC [10, 25] [µg/mL] | MIC (Escherichia coli SS; Escherichia coli, 24 h) [µg/mL] | MIC [12, 26] [µg/mL] | MIC [13, 27] [µg/mL] | MIC ([14]; read-out: MIC) [µg/mL] | MIC [16] [µg/mL] | MIC [17, 28] [µg/mL] | MIC ([18]; Streptococcus, 2548INDUC, 24 h) [µg/mL] | MIC (Staphylococcus aureus 45) [µg/mL] | MIC [20] [µg/mL] | other results |
| --- | --- | --- | --- | --- | --- | --- | --- | --- | --- | --- | --- | --- | --- | --- | --- | --- | --- | --- | --- | --- | --- |
| CC[C@H]1OC(=O)[C@H](C)[C@@H](O[C@H]2C[C@@](C)(OC)[C@H](N)[C@H](C)O2)[C@H](C)[C@@H](O[C@@H]2O[C@H](C)C[C@H](N(C)C)[C@H]2O)[C@](C)(O)C[C@@H](C)[C@@H]2O[C@@]1(C)C(=O)[C@H]2C [Example 8, (4"R,9S)-4"-Amino-9-deoxo-4",11,12-trideoxy-9,12-epoxy 11-oxoerythromycin A] | 0.2 (≈ 0.28 µM) | 0.1 (≈ 0.14 µM) | 0.2 (≈ 0.28 µM) | 0.2 (≈ 0.28 µM) | > 100 | > 100 | > 100 | 100 (≈ 140 µM) | 0.2 (≈ 0.28 µM) | 0.05 (≈ 0.0699 µM) | 100 (≈ 140 µM) | 0.2 (≈ 0.28 µM) | > 100 | 100 (≈ 140 µM) | 0.01 (≈ 0.014 µM) | 0.05 (≈ 0.0699 µM) | 0.39 (≈ 0.546 µM) | 0.39 (≈ 0.546 µM) | 0.2 (≈ 0.28 µM) | 0.02 (≈ 0.028 µM) | MIC (Acinetobacter SP CMX 669): 6.2 µg/mL (≈ 8.67 µM); MIC ([5]; Pseudomonas aeruginosa, K799/61, 24 h): 0.78 µg/mL (≈ 1.09 µM); MIC ([11]; A5169, 24 h): 0.05 µg/mL (≈ 0.0699 µM); MIC (Escherichia coli H560): 25 µg/mL (≈ 35 µM); MIC ([15]; Micrococcus luteus, ATCC9341, 24 h, BHI agar): 0.02 µg/mL (≈ 0.028 µM); MIC [19, 29]: > 100 µg/mL; MIC ([21]; read-out: MIC): 0.2 µg/mL (≈ 0.28 µM); MIC (Escherichia coli DC-2; DC2, read-out: MIC): 100 µg/mL (≈ 140 µM) |
| CC[C@H]1OC(=O)[C@H](C)[C@@H](O[C@H]2C[C@@](C)(OC)[C@@H](N)[C@H](C)O2)[C@H](C)[C@@H](O[C@@H]2O[C@H](C)C[C@H](N(C)C)[C@H]2O)[C@](C)(O)C[C@@H](C)[C@@H]2O[C@@]1(C)C(=O)[C@H]2C [Example 14, (4"S,9S)-4"-Amino-9-deoxo-4",11,12-trideoxy-9,12-epoxy-11-oxoerythromycin A] | 0.39 (≈ 0.546 µM) | 0.2 (≈ 0.28 µM) | 0.39 (≈ 0.546 µM) | 0.39 (≈ 0.546 µM) | – | > 100 | – | – | 0.39 (≈ 0.546 µM) | 0.1 (≈ 0.14 µM) | 50 (≈ 69.9 µM) | 0.2 (≈ 0.28 µM) | > 100 | – | – | 0.1 (≈ 0.14 µM) | 3.1 (≈ 4.34 µM) | 3.1 (≈ 4.34 µM) | 0.39 (≈ 0.546 µM) | 0.05 (≈ 0.0699 µM) | MIC (Acinetobacter SP CMX 669; Acinetobacter SP CMX 669, BHI agar, 20-24 h): 12.5 µg/mL (≈ 17.5 µM); MIC ([5]; Pseudomonas aeruginosa, K799/61, 24 h, Pseudomonas aeruginosa K799/61, BHI agar, 20-24 h): 1.56 µg/mL (≈ 2.18 µM); MIC (Pseudomonas cepacia 2961; Burkholderia cepacia, 2961, 24 h): > 100 µg/mL; MIC ([7]; Providencia stuartii, CMX640, 24 h): > 100 µg/mL; MIC (Escherichia coli JUHL; Escherichia coli, 24 h): 25 µg/mL (≈ 35 µM); MIC ([11]; read-out: MIC): 0.1 µg/mL (≈ 0.14 µM); MIC ([13]; Klebsiella pneumoniae, ATCC8045, 24 h): 100 µg/mL (≈ 140 µM); MIC ([14]; Streptococcus, EES61, 24 h): 0.05 µg/mL (≈ 0.0699 µM); MIC (Escherichia coli H560; Escherichia coli H560, BHI agar, 20-24 h): 12.5 µg/mL (≈ 17.5 µM); MIC [15, 30]: 0.05 µg/mL (≈ 0.0699 µM); MIC ([19]; ATCC13048, 24 h): > 100 µg/mL; MIC [21, 31]: 0.39 µg/mL (≈ 0.546 µM); MIC (Escherichia coli DC-2; Escherichia coli, DC2, 24 h): 25 µg/mL (≈ 35 µM) |
| CC[C@H]1OC(=O)[C@H](C)[C@@H](O[C@H]2C[C@@](C)(OC)[C@H](NC(=O)OCc3ccccc3)[C@H](C)O2)[C@H](C)[C@@H](O[C@@H]2O[C@H](C)C[C@H](N(C)C)[C@H]2O)[C@](C)(O)C[C@@H](C)[C@@H]2O[C@@]1(C)C(=O)[C@H]2C [Example 7, (4"R,9S)-9-Deoxo-4",11,12-trideoxy-9,12-epoxy-11-oxo-4"-[[(phenylmethoxy)carbonyl]amino]erythromycin A] | 0.2 (≈ 0.236 µM) | 0.2 (≈ 0.236 µM) | 0.2 (≈ 0.236 µM) | 0.2 (≈ 0.236 µM) | > 100 | – | > 100 | > 100 | 0.39 (≈ 0.459 µM) | 0.2 (≈ 0.236 µM) | – | – | – | 100 (≈ 118 µM) | 0.1 (≈ 0.118 µM) | 0.1 (≈ 0.118 µM) | – | – | 0.2 (≈ 0.236 µM) | 0.05 (≈ 0.0589 µM) | MIC ([5]; Pseudomonas aeruginosa K799/61, BHI agar, 20-24 h, read-out: MIC): 0.78 µg/mL (≈ 0.919 µM); MIC ([6]; Pseudomonas aeruginosa A5007, BHI agar, 20-24 h, read-out: MIC): > 100 µg/mL; MIC ([10]; read-out: MIC): 100 µg/mL (≈ 118 µM); MIC ([11]; read-out: MIC): 0.1 µg/mL (≈ 0.118 µM); MIC (Escherichia coli SS; read-out: MIC): 1.56 µg/mL (≈ 1.84 µM); MIC ([12]; Pseudomonas aeruginosa K799/WT, BHI agar, 20-24 h, read-out: MIC): 100 µg/mL (≈ 118 µM); MIC [15, 30]: 0.05 µg/mL (≈ 0.0589 µM); MIC ([17]; read-out: MIC): 0.39 µg/mL (≈ 0.459 µM); MIC ([18]; read-out: MIC): 0.39 µg/mL (≈ 0.459 µM); MIC [19, 29]: 100 µg/mL (≈ 118 µM); MIC [21, 31]: 0.39 µg/mL (≈ 0.459 µM); MIC (Escherichia coli DC-2; DC2, read-out: MIC): 100 µg/mL (≈ 118 µM) |
